Experimental data published in ChEMBL document CHEMBL1201862, “PubChem BioAssay data set” (2004).
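Growth conditions: 96-well plates. Treatment: test compound, 48 hours, 5 concentrations. Analysis: linear interpolation between bracketing concentrations; unreached endpoints set to highest concentration. Here, GI50 denotes the concentration required for 50% inhibition of growth.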 Activity calls are given as the source filed them. Cut-off read from the data, not from the text of the source: active = GI50 up to about 1.1 µM and inactive = higher.

Tests used:
Test in all cases: inhibition of tumour cell growth, NCI panel, 48 h
A498 = test system: A498
A549 = test system: A549
BT-549 = test system: BT-549
CCRF-CEM = test system: CCRF-CEM
HCT-15 = test system: HCT-15
HOP-62 = test system: HOP-62
Hs-578T = test system: Hs-578T
KM12 = test system: KM12
MDA-N = test system: MDA-N
OVCAR-4 = test system: OVCAR-4
OVCAR-5 = test system: OVCAR-5
RXF 393 = test system: RXF 393
SNB-19 = test system: SNB-19
SNB-75 = test system: SNB-75
U-251 = test system: U-251
UACC-62 = test system: UACC-62
SF-539 = test system: SF-539
SN12C = test system: SN12C
TK-10 = test system: TK-10

Structure (SMILES): COC1OC(Cn2c(C)nc(Br)c2Br)C(O)C(O)C1O (stereo unspecified)
- GI50 (A498): > 100 µM (inactive)
- GI50 (A549): > 100 µM (inactive)
- GI50 (BT-549): > 100 µM (inactive)
- GI50 (CCRF-CEM): > 100 µM (inactive)
- GI50 (HCT-15): > 100 µM
- GI50 (HOP-62): > 100 µM (inactive)
- GI50 (Hs-578T): > 100 µM (inactive)
- GI50 (KM12): > 100 µM (inactive)
- GI50 (MDA-N): > 100 µM (inactive)
- GI50 (OVCAR-4): > 100 µM (inactive)
- GI50 (OVCAR-5): > 100 µM (inactive)
- GI50 (RXF 393): > 100 µM (inactive)
- GI50 (SNB-19): > 100 µM (inactive)
- GI50 (SNB-75): > 100 µM (inactive)
- GI50 (U-251): > 100 µM (inactive)
- GI50 (UACC-62): > 100 µM (inactive)

Structure (SMILES): CC(C)(C)NC(=S)N/N=C/c1ccccn1
- GI50 (A498): 2.73 µM (inactive)
- GI50 (A549): 2.13 µM (inactive)
- GI50 (BT-549): 18.3 µM (inactive)
- GI50 (CCRF-CEM): < 0.01 µM (active)
- GI50 (HCT-15): < 0.0159 µM
- GI50 (HOP-62): 0.396 µM (active)
- GI50 (Hs-578T): > 32.2 µM (inactive)
- GI50 (KM12): 1.94 µM (inactive)
- GI50 (MDA-N): 1.58 µM (inactive)
- GI50 (OVCAR-5): 0.361 µM (active)
- GI50 (RXF 393): < 0.01 µM (active)
- GI50 (SF-539): 3.28 µM (inactive)
- GI50 (SN12C): 3.16 µM (inactive)
- GI50 (SNB-19): 7.36 µM (inactive)
- GI50 (SNB-75): > 100 µM (inactive)
- GI50 (TK-10): 14.1 µM (inactive)
- GI50 (U-251): 0.357 µM (active)
- GI50 (UACC-62): 0.578 µM (active)

Structure (SMILES): O=C(Nc1ccn(C2CCC(CO)O2)c(=O)n1)c1ccccc1 (stereo unspecified)
- GI50 (A498): 50.4 µM (inactive)
- GI50 (A549): > 100 µM (inactive)
- GI50 (BT-549): > 100 µM (inactive)
- GI50 (CCRF-CEM): 34.1 µM (inactive)
- GI50 (HCT-15): > 100 µM
- GI50 (HOP-62): > 100 µM (inactive)
- GI50 (Hs-578T): > 100 µM (inactive)
- GI50 (KM12): > 100 µM (inactive)
- GI50 (MDA-N): > 100 µM (inactive)
- GI50 (OVCAR-5): > 100 µM (inactive)
- GI50 (RXF 393): > 100 µM (inactive)
- GI50 (SF-539): > 100 µM (inactive)
- GI50 (SN12C): > 100 µM (inactive)
- GI50 (SNB-19): > 100 µM (inactive)
- GI50 (SNB-75): 79.6 µM (inactive)
- GI50 (TK-10): > 100 µM (inactive)
- GI50 (U-251): > 100 µM (inactive)
- GI50 (UACC-62): > 100 µM (inactive)

Structure (SMILES): c1ccc(-c2nc(-c3ccccc3SSc3ccccc3-c3nc(-c4ccccc4)nn3-c3ccccc3)n(-c3ccccc3)n2)cc1
- GI50 (A498): > 100 µM (inactive)
- GI50 (A549): > 100 µM (inactive)
- GI50 (BT-549): > 100 µM (inactive)
- GI50 (CCRF-CEM): > 100 µM (inactive)
- GI50 (HCT-15): > 100 µM
- GI50 (HOP-62): > 10 µM (inactive)
- GI50 (Hs-578T): > 100 µM (inactive)
- GI50 (KM12): > 100 µM (inactive)
- GI50 (MDA-N): > 100 µM (inactive)
- GI50 (OVCAR-5): > 100 µM (inactive)
- GI50 (RXF 393): > 100 µM (inactive)
- GI50 (SF-539): > 100 µM (inactive)
- GI50 (SN12C): > 100 µM (inactive)
- GI50 (SNB-19): > 100 µM (inactive)
- GI50 (SNB-75): > 100 µM (inactive)
- GI50 (TK-10): > 100 µM (inactive)
- GI50 (U-251): > 100 µM (inactive)
- GI50 (UACC-62): > 100 µM (inactive)

Structure (SMILES): CC(C)CCCC(C)[C@H]1CC[C@H]2[C@@H]3CC[C@H]4C[C@@H](CCC=C(c5cc(Cl)c(O)c(C(=O)OC(C)(C)C)c5)c5cc(Cl)c(O)c(C(=O)OC(C)(C)C)c5)CC[C@]4(C)[C@H]3CC[C@]12C (stereo partly specified)
- GI50 (A498): > 50 µM (inactive)
- GI50 (A549): > 50 µM (inactive)
- GI50 (BT-549): > 50 µM (inactive)
- GI50 (CCRF-CEM): > 50 µM (inactive)
- GI50 (HCT-15): > 50 µM
- GI50 (HOP-62): > 50 µM (inactive)
- GI50 (Hs-578T): > 50 µM (inactive)
- GI50 (KM12): > 50 µM (inactive)
- GI50 (MDA-N): > 50 µM (inactive)
- GI50 (OVCAR-4): > 50 µM (inactive)
- GI50 (OVCAR-5): > 50 µM (inactive)
- GI50 (RXF 393): > 50 µM (inactive)
- GI50 (SF-539): 15.7 µM (inactive)
- GI50 (SN12C): > 50 µM (inactive)
- GI50 (SNB-19): > 50 µM (inactive)
- GI50 (SNB-75): > 50 µM (inactive)
- GI50 (U-251): > 50 µM (inactive)
- GI50 (UACC-62): > 50 µM (inactive)

Structure (SMILES): COC(=O)[C@H](C)N(C)C(=O)[C@H](C)N1[C@@H](c2ccccc2)COC1(C)C
- GI50 (A498): > 100 µM (inactive)
- GI50 (A549): > 100 µM (inactive)
- GI50 (BT-549): > 100 µM (inactive)
- GI50 (CCRF-CEM): > 100 µM (inactive)
- GI50 (HCT-15): > 100 µM
- GI50 (HOP-62): > 100 µM (inactive)
- GI50 (Hs-578T): > 100 µM (inactive)
- GI50 (KM12): > 100 µM (inactive)
- GI50 (MDA-N): > 100 µM (inactive)
- GI50 (OVCAR-4): > 100 µM (inactive)
- GI50 (OVCAR-5): > 100 µM (inactive)
- GI50 (RXF 393): > 100 µM (inactive)
- GI50 (SF-539): > 100 µM (inactive)
- GI50 (SNB-19): > 100 µM (inactive)
- GI50 (SNB-75): 92.7 µM (inactive)
- GI50 (TK-10): > 100 µM (inactive)
- GI50 (U-251): > 100 µM (inactive)
- GI50 (UACC-62): > 100 µM (inactive)
